Test results taken from PMC8704315, “Lichen-Derived Compounds and Extracts as Biologically Active Substances with Anticancer and Neuroprotective Properties” (Pharmaceuticals, 2021).
Where “and” joins values, the source holds several entries; their conditions need not be identical. Identical values can stand only once. Entries after “also recorded” stand apart in the source; their conditions may differ. Like-named read-outs stand apart in the source and are kept apart here.

How the values were obtained:
[1] = biological target: T1, indoleamine 2,3-dioxygenases 2 (IDO2) (Homo sapiens, UniProt Q6ZQW0); test: Universal IDO1/IDO2/TDO Inhibitor Screening Assay Kit, IDO2; assay type: biochemical; settings: for inhibition at 100 µg/mL: read-out: Inhibition (%) IDO2
T1 construct: purchased BPS Bioscience, Inc. (San Diego, CA, USA)
T1 sequence (Q6ZQW0 1-407): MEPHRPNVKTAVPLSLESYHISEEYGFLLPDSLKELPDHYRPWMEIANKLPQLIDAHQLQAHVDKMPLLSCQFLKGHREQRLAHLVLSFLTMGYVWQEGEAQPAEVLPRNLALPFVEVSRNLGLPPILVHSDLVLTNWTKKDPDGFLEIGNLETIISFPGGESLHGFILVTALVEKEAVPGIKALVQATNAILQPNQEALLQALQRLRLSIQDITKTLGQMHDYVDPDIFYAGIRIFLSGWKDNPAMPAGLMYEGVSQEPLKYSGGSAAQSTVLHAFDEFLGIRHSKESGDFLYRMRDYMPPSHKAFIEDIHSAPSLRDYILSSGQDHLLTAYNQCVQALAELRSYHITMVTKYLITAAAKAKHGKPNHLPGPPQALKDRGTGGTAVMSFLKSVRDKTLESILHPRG
Description: This colorimetric assay is based on the measurement of the ability of IDO1, IDO2 and TDO to convert L-tryptophan into N-formylkynurenine (NFK). The experiments were performed according to the manufacturer’s guidelines. The final concentration of the compounds and extracts in the reaction mixture was 100 µg/mL. The amount of NFK was measured spectrophotometrically at 320 nm using an Epoch BioTek microplate reader (BioTek Instruments, Inc., Winooski, VT, USA). The samples were run in triplicate and the results were expressed as mean ± SEM.

PAMPA-BBB permeability = assay type: in vitro ADME
From the text: To evaluate the effective permeability (Pe) of the salazinic acid, evernic acid, (−)-usnic acid as pure compounds and from the extracts (P. sulcata acetone extract, E. prunastri acetone extract, C. uncialis acetone extract, respectively), Parallel Artificial Membrane Permeability Assay (PAMPA) for the Blood-Brain Barrier (BBB) was used (Pion Inc., Billerica, MA, USA). The stock solutions of acetone extracts from C. uncialis, E. prunastri and P. sulcata and from (−)-usnic acid, evernic acid, salazinic acid, were prepared with DMSO (the concentrations of salazinic acid, evernic acid, and (−)-usnic acid reached were 2.5 mg/mL for pure compounds and extracts). Next, the donor solution was prepared (5 µL of stock solution/1000 µL of Prisma buffer, pH = 7.4 (Prisma HT, Pion Inc.). Subsequently, each filter membrane of the acceptor plate wells was coated with 5 μL BBB-1 lipid solution (Pion Inc.), and 180 µL of the donor solution was added to the donor wells. The acceptor well was filled with 200 µL BSB (Brain Sink Buffer, Pion Inc.). The plate was incubated for 1 h or 4 h at 37 °C. After incubation, the donor and acceptor concentrations of examined substances were determined using the HPLC. Effective permeability (Pe) of the compounds was calculated by using the following equation. (4) Pe=−ln(1−CA/Ceq)/S×(1/VD+1/VA)×t where Pe is the effective permeability coefficient (cm/s), VD = donor volume, VA = acceptor volume, Ceq = equilibrium concentration and Ceq=CD×VD+CA×VA/VD+VA , S = membrane area, and t = incubation time (in seconds).
Compounds with Pe (× 10^−6 cm/s) > 1.5 are classified as high permeation predicted, while Pe (× 10^−6 cm/s) < 1.5 are classified as low permeation predicted. Samples were analyzed in triplicate and the average is reported.

[2] = biological target: T2, indoleamine 2,3-dioxygenases 1 (IDO1) (Homo sapiens, UniProt P14902); test: Universal IDO1/IDO2/TDO Inhibitor Screening Assay Kit, IDO1; assay type: biochemical; settings: ± SEM, three measurements
T2 construct: purchased BPS Bioscience, Inc. (San Diego, CA, USA)
T2 sequence (P14902 whole entry, species assumed): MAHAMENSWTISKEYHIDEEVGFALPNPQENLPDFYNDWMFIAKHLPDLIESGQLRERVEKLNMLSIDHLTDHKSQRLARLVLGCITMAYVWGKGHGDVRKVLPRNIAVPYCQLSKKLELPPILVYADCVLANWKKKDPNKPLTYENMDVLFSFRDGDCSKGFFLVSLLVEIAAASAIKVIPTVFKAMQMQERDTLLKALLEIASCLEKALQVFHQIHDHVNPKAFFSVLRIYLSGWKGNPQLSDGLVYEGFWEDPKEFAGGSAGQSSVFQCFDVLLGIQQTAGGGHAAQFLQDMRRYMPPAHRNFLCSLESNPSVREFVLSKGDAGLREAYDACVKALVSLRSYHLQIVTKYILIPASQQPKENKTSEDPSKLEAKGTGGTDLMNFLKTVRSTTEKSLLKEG

A-172 cell line = test: MTT cell viability assay, 48 h, A-172; assay type: cell-based, Human; settings: for IC50: Homo sapiens, read-out: IC50 A-172
[3] = biological target: T3, COX-2 enzyme (Human recombinant) (Homo sapiens, UniProt P35354); test: COX-2 activity assay (Cayman COX Activity Assay Kit); assay type: biochemical; settings: for inhibition at 250 µg/mL: read-out: COX-2 Inhibition (%)
T3 construct: purchased Cayman 60122
T3 sequence (P35354 18-604): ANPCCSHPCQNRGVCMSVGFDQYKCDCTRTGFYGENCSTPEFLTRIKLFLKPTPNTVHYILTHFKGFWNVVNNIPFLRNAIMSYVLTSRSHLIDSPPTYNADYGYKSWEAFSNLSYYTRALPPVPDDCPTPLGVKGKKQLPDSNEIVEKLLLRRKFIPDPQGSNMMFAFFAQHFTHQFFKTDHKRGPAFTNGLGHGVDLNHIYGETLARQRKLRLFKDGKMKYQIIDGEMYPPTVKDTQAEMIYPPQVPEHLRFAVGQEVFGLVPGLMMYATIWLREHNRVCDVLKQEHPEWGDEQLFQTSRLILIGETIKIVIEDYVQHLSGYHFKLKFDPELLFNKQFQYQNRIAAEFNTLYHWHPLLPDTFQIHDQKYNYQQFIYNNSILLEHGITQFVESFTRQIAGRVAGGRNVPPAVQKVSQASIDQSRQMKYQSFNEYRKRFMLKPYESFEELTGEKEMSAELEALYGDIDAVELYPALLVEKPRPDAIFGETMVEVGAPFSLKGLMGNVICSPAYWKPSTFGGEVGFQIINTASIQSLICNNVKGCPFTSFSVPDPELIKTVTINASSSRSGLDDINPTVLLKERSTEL
Description: A volume of 0.01 mL of the studied sample, dissolved in pure DMSO to obtain 5 mg/mL, was mixed with 0.12 mL of Tris buffer (100 mM, pH 8.0), 0.01 mL hemin, shaken and left for 5 min at 25 °C followed by addition of 0.02 mL colorimetric substrate and 0.02 mL arachidonic acid solution. To start the reaction, 0.02 mL of COX-2 solution was added. The increase of absorbance during incubation at room temperature was recorded at 590 nm. Negative (blank) sample (buffer instead of studied sample) and positive sample (COX-2 inhibitor DuP-697) were run simultaneously. Background of studied samples (0.01 mL of sample mixed with 0.19 mL buffer) was also measured and included in the calculations. Each sample was run in at least 4 repeats. Inhibition of the enzyme activity was expressed in % (indicates by how many % the activity has been reduced in relation to the negative or blank sample for which the maximum activity was assumed as 100%, under the conditions used in the method). Also, inhibition of enzyme activity was expressed as acetylsalicylic acid equivalent concentration (mg/mL). For this purpose, acetylsalicylic acid solutions were prepared at 14 concentrations (0.2-10.0 mg/mL) and analyzed similarly to tested samples.

[4] = pH 7.4, Pe (effective permeability, PAMPA-BBB)
[5] = 100 µg/mL, read-out: Inhibition (%) IDO1
[6] = A 172, 48 h treatment, MTT, ± SEM
[7] = sample 5 mg/mL stock, 250.0 µg/mL in assay, ± SEM

Row | Compound | inhibition at 100 µg/mL ([1]; 100 µg/mL) | Pe × 10^−6 (cm/s) t = 1 h (PAMPA-BBB permeability; 1 h, 12.5 µg/mL, pH 7.4) | Pe × 10^−6 (cm/s) t = 4 h (PAMPA-BBB permeability; 4 h, 12.5 µg/mL, pH 7.4) | Papp at 12.5 µg/mL (PAMPA-BBB permeability; [4]) | Papp at 1 h, 12.5 µg/mL (PAMPA-BBB permeability; pH 7.4, Pe × 10^−6 (cm/s) t = 1 h) | Papp at 4 h, 12.5 µg/mL (PAMPA-BBB permeability; pH 7.4, Pe × 10^−6 (cm/s) t = 4 h) | Inhibition (%) IDO1 ([2]; 100 µg/mL) | inhibition at 100 µg/mL [2, 5] | cell viability A-172 (A-172 cell line; 10–100 µM, compared to vehicle-treated control) | IC50 (A-172 cell line; [6]) | Equivalent Concentration of Acetylsalicylic Acid [3, 7] | inhibition at 250 µg/mL [3, 7] | Inhibition (%) IDO2 ([1]; 100 µg/mL) | inhibition at 100 µg/mL [1] | Papp at 1 h, 12.5 µg/mL (PAMPA-BBB permeability; pH 7.4, compound permeated from the acetone extract, 1 h, 37 °C, pH 7.4, ± SEM, n = 3, read-out: Pe × 10^−6 (cm/s) t = 1 h) | Papp at 12.5 µg/mL (PAMPA-BBB permeability; pH 7.4, from the extract or as a pure compound, bound stated, read-out: Pe (effective permeability, PAMPA-BBB)) | Papp at 1 h, 12.5 µg/mL (PAMPA-BBB permeability; pH 7.4, pure compound (PC), 1 h, 37 °C, pH 7.4, ± SEM, n = 3, read-out: Pe × 10^−6 (cm/s) t = 1 h) | inhibition at 100 µg/mL ([2]; read-out: Inhibition (%) IDO1, 100 µg/mL) | IC50 (A-172 cell line; A 172, 48 h) | inhibition at 250 µg/mL [3]
1 | COc1cc(C)c(C(=O)Oc2cc(C)c(C(=O)O)c(O)c2)c(O)c1 [Evernic acid, evernic acid] | < 10% | 5.0 ± 0.7 × 10^−6 cm/s | 7.2 ± 0.4 × 10^−6 cm/s | > 1.5 ×10⁻⁶ cm/s | 5.2 ± 0.8 ×10⁻⁶ cm/s | 8.6 ± 0.4 ×10⁻⁶ cm/s | 32.8 ± 1.9% | 32.8 ± 1.93% | ~ 80% | > 33.2 µg/mL and > 100 µM | 10.9 ± 1.8 mg/mL | 50.7 ± 2.1% |  |  |  |  |  |  |  | 
2 | Cc1cc(O)c(C=O)c2c1C(=O)Oc1c(CO)c(O)c3c(c1O2)C(O)OC3=O (centres unmarked) [Salazinic acid, salazinic acid] | < 10% |  |  | < 0.5 ×10⁻⁶ cm/s |  |  | did not exhibit any inhibition effect; also recorded: not active | < 10% |  | > 38.8 µg/mL and > 100 µM | 12.9 ± 0.1 mg/mL | 60.3 ± 3% | did not exhibit any inhibition effect |  |  |  |  |  |  | 
3 | CC(=O)C1=C(O)C=C2Oc3c(C(C)=O)c(O)c(C)c(O)c3C2(C)C1=O (single isomer, unassigned; (-)) [(−)-Usnic acid, (−)-usnic acid] |  |  |  |  |  |  | 21.6 ± 0.9% |  |  |  | 12.9 ± 1.5 mg/mL |  |  | < 10% | 140 ± 7.3 ×10⁻⁶ cm/s | > 1.5 ×10⁻⁶ cm/s | 92.8 ± 6.3 ×10⁻⁶ cm/s | 21.6 ± 0.85% | 31.5 µg/mL and 91.4 µM | 59.3 ± 3.5%
